Test results from US8088819B2, “Derivatives of substituted 3-phenyl-1-(phenylthienyl)propan-1-ones and of 3-phenyl-1-(phenylfuranyl) propan-1-ones, preparation and use” (priority 2006, dated 2012).

What was measured:
[1] = system: target genes of the PPARs; test: Expression of PPARδ target genes in skeletal muscle of the C57Bl6 mouse (compounds 4 and 7), quantitative RT-PCR; type: in vivo; conditions: C57Bl6 mice; 50 mpk; 14 days
Description: The PPARδ agonistic properties of the molecules according to the invention previously measured in vitro should be reflected at the level of the skeletal muscle in overexpression of the target genes directly under the control of the PPARδ receptor: the genes that were investigated in this experiment are the genes coding for PDK4 (enzyme of carbohydrate metabolism), CPT1b (enzyme of lipid metabolism), UCP2 and UCP3 (mitochondrial transporters involved in thermoregulation).
Female C57Bl6 mice were kept under a cycle of light and darkness of 12/12 hours at a constant temperature of 20±3° C. After acclimation for one week, the mice were weighed and put into groups of 6 animals selected so that the distribution of their body weight, of their plasma lipid levels and of total cholesterol determined for the first time before the experiment, is uniform. The test compounds were suspended in carboxymethylcellulose (Sigma C4888) and administered by intragastric force feeding, at a rate of once per day for 14 days at the chosen dose. The animals had free access to water and to food (standard diet). At the end of the experiment, the animals were anesthetized after fasting for 4 hours, a blood sample was taken using anticoagulant (EDTA), then the mice were weighed and euthanased. The plasma was separated by centrifugation at 3000 rev/min for 20 minutes, and the samples were stored at +4° C.
Samples of skeletal muscle tissue were taken and frozen immediately in liquid nitrogen and then stored at −80° C. for later analyses.
The total RNA was extracted from fragments of gastrocnemius skeletal muscle using the RNeasy® Fibrous Tissue kit (Qiagen) following the manufacturer's instructions.
1 μg of total RNA (quantified based on the spectrophotometer reading) was then reverse-transcribed to complementary DNA by reaction for 1 hour at 37° C. in a total volume of 30 μl containing buffer 1× (Invitrogen), 1.5 mM of DTT, 0.18 mM of dNTPs (Promega), 200 ng of pdN6 (Amersham), 30 U of RNase inhibitor (Promega) and 1 μl of MMLV-RT (Invitrogen).
The quantitative PCR experiments were carried out using the MyiQ Single-Color Real-Time PCR Detection System (Biorad, Marnes-la-Coquette, France) and were performed using the iQ SYBR Green Supermix kit following the supplier's recommendations, in 96-well plates, on 5 μl of diluted reverse transcription reaction mixture with a hybridization temperature of 60° C. Primer pairs specific to the genes under investigation were used:
The amount of fluorescence emitted is directly proportional to the amount of complementary DNA present at the start of the reaction and amplified during PCR. For each target investigated, a range is produced by successive dilutions of a pool constituted of a few microliters of various reverse transcription reaction mixtures. The relative expression levels of each target are thus determined using the efficacy curves obtained with the points in the range.
The levels of expression of the genes of interest were then normalized relative to the level of expression of the reference gene 18S (whose specific primers are: […]
The induction factor, i.e. the ratio of the relative signal (induced by the compound according to the invention) to the mean of the relative values of the control group, was then calculated for each sample. The higher this factor, the greater the gene expression activating character of the compound. The final result is represented as the mean of the induction values in each experimental group.

[2] = system: MCP1 secretion in human monocytes (THP1); test: MCP1 secretion by human monocytes stimulated with PMA (ELISA); type: cell-based; conditions: at 1 μm, 24 h
Description: The antiinflammatory effects of the compounds according to the invention were evaluated by measuring the secretion and expression of macrophages chemoattractant protein (MCP1) and of matrix metalloproteinase 9 (MMP9) by monocytes treated with the compounds according to the invention for 24 hours and stimulated with PMA (phorbol 12-myristate 13-acetate, which causes an inflammatory response of the cells). The more the amount of MCP1 secreted is reduced, the greater the inhibitory action of the compounds according to the invention on the inflammatory reaction. […]
The treatment medium is recovered and the concentration of MCP1 is measured using the ELISA kit “Human MCP1 Elisa set” (BD OptEIA; 555179) following the manufacturer's recommendations.
A human antiMCP1 monoclonal antibody is fixed on a plate, then the supernatants, containing the MCP1 secreted by the cells, are distributed. […] A third antibody, conjugated and coupled to a peroxidase enzyme, makes it possible, in the presence of substrate, to initiate an enzymatic reaction, the result of which is a coloration that is proportional to the amount of MCP1 fixed, and can be measured by spectrophotometry. […]
The induction factor, i.e. the ratio of the signal induced by the compound according to the invention to the signal of the control group, was then calculated. […]

Structure (SMILES)	expression of the gene coding for CPT1b in skeletal muscle [1]	expression of the gene coding for PDK4 in skeletal muscle [1]	expression of the gene coding for UCP2 in skeletal muscle [1]	expression of the gene coding for UCP3 in skeletal muscle [1]	secretion of MCP1 in human monocytes [2]
CC(C)(Oc1ccc(CCC(O)c2ccc(-c3ccc(C(F)(F)F)cc3)s2)c(Cl)c1Cl)C(=O)O (stereo not shown) [Compound 4, 2-(2,3-dichloro-4-(3-hydroxy-3-(5-(4-(trifluoromethyl)phenyl)thien-2-yl)propyl)phenoxy)-2-methylpropanoic acid]	significant increase	significant increase	significant increase	significant increase	–
CC(C)(Oc1ccc(CCC(OCc2ccccc2)c2ccc(-c3ccc(C(F)(F)F)cc3)s2)c(Cl)c1Cl)C(=O)O (stereo not shown) [Compound 7, 2-(4-(3-(benzyloxy)-3-(5-(4-(trifluoromethyl)phenyl)thien-2-yl)propyl)-2,3-dichlorophenoxy)-2-methylpropanoic acid]	significant increase	significant increase	significant increase	significant increase	significant decrease
CC(C)(Oc1ccc(CCC(=O)c2cc(-c3ccc(C(F)(F)F)cc3)cs2)c(Cl)c1Cl)C(=O)O [Compound 11, 2-(2,3-dichloro-4-(3-oxo-3-(4-(4-(trifluoromethyl)phenyl)thien-2-yl)propyl)phenoxy)-2-methylpropanoic acid]	–	–	–	–	significant decrease
